{"source": "paper PMC3391414", "about": "(Journal of Agricultural and Food Chemistry, 2011)", "key": {"UGT1A1 [1]": {"molecular_target": "T1, UGT1A1 (Homo sapiens, UniProt P22309)", "T1 sequence (P22309 26-533)": "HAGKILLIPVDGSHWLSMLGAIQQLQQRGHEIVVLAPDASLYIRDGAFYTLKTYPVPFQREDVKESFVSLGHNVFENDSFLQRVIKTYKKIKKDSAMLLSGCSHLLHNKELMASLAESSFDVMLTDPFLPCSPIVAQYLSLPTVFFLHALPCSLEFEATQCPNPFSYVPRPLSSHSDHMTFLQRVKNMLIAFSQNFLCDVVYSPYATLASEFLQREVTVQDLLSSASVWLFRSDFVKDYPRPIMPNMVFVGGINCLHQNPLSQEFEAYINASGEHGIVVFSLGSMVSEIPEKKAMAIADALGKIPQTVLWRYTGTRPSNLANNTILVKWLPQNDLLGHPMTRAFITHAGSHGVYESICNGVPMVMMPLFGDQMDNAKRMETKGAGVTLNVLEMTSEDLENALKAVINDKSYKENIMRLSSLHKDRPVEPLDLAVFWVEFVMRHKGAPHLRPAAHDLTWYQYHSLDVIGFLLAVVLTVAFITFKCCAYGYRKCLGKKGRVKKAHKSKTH", "conditions": "pH 7.4"}, "UGT1A3 [2]": {"molecular_target": "T2, UGT1A3 (Homo sapiens, UniProt P35503)", "T2 sequence (P35503 29-534)": "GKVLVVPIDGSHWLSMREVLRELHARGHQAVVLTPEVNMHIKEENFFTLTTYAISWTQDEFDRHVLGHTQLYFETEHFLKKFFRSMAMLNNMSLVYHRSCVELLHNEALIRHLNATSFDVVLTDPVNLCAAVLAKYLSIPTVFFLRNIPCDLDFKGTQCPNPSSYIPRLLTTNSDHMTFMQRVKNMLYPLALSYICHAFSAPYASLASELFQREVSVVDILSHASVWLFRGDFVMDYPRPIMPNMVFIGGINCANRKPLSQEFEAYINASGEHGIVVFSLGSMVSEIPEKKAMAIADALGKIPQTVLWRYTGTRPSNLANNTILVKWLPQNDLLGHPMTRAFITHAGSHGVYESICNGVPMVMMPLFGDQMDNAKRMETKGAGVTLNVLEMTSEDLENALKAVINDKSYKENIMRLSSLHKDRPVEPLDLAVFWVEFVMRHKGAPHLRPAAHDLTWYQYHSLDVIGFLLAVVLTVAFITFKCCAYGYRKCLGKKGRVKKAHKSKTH", "conditions": "pH 7.4"}, "UGT1A9 [3]": {"molecular_target": "T3, UGT1A9 (Homo sapiens, UniProt O60656)", "T3 sequence (O60656 26-530)": "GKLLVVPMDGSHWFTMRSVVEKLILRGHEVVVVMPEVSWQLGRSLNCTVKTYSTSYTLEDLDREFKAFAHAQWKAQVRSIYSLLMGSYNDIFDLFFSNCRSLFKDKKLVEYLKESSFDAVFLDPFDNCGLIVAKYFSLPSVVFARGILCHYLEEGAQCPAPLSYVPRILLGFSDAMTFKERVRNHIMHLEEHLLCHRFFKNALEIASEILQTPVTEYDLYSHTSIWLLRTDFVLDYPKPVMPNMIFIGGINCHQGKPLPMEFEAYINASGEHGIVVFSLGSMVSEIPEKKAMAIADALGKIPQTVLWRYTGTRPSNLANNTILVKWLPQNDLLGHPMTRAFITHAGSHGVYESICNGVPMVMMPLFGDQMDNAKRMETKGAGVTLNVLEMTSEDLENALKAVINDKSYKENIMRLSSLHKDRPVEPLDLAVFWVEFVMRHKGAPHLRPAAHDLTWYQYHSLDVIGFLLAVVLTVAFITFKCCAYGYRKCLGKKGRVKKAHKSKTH", "conditions": "pH 7.4"}, "[4]": {"test_system": "UGT 1A1, 1A3, 1A6, 1A7, 1A8, 1A9, 1A10 and 2B7", "conditions": "human, 10 μM, pH 7.4"}, "UGT1A1 [5]": {"molecular_target": "T1, UGT1A1", "assay": "Glucuronidation by recombinant human UGT1A1"}, "UGT1A3 [6]": {"molecular_target": "T2, UGT1A3", "assay": "Glucuronidation by recombinant human UGT1A3"}, "UGT1A6": {"molecular_target": "T4, UGT1A6 (Homo sapiens, UniProt P19224)", "T4 sequence (P19224 27-532)": "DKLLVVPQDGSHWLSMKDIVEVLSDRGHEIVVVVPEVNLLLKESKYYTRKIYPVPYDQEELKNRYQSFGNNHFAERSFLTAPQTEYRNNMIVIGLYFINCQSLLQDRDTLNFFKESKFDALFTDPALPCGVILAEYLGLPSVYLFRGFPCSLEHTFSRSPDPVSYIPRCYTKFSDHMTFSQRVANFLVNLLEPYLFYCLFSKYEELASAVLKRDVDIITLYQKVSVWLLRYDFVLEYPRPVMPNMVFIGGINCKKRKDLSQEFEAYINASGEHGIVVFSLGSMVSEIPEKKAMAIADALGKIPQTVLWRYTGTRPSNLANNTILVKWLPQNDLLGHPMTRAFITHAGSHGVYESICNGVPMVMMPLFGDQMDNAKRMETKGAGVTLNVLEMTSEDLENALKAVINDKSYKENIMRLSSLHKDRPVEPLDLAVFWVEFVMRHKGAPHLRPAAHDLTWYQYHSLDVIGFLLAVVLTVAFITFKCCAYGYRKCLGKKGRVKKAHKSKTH", "assay": "Glucuronidation by recombinant human UGT1A6", "conditions": "UGT1A6, substrate 10 μM"}, "UGT1A9 [7]": {"molecular_target": "T3, UGT1A9", "assay": "Glucuronidation by recombinant human UGT1A9"}, "UGT2B7": {"molecular_target": "T5, UGT2B7 (Homo sapiens, UniProt P16662)", "T5 sequence (P16662 24-529)": "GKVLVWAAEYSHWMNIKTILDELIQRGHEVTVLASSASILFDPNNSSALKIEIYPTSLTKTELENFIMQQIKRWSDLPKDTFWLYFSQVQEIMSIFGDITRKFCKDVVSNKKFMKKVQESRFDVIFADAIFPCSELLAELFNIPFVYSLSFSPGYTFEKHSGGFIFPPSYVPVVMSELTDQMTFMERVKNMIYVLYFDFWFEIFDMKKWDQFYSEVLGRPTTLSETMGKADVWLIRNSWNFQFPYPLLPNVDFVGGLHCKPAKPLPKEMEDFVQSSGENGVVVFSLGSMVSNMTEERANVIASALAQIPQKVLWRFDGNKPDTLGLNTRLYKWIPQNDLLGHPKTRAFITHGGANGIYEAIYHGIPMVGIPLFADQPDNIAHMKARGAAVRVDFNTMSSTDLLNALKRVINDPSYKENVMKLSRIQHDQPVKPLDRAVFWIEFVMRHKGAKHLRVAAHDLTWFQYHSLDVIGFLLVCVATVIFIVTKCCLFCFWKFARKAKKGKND", "assay": "Glucuronidation by recombinant human UGT2B7", "conditions": "UGT2B7, substrate 10 μM"}, "UGT1A10": {"molecular_target": "T6, UGT1A10 (Homo sapiens, UniProt Q9HAW8)", "T6 sequence (Q9HAW8 26-530)": "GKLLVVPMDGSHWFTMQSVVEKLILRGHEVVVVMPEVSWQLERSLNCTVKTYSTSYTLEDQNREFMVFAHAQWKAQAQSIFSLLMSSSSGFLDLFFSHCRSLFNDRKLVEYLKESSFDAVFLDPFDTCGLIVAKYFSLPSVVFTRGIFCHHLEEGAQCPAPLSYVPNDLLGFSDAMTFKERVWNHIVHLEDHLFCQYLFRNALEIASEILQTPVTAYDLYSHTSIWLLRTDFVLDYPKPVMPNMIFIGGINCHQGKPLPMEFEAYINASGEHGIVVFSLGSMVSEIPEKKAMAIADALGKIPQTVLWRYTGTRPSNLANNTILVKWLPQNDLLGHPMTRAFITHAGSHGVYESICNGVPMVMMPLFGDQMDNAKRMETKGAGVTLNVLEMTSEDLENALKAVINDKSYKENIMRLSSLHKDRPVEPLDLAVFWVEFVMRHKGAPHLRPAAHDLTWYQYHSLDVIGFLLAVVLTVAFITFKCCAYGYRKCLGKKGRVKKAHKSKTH", "assay": "Glucuronidation by recombinant human UGT1A10", "conditions": "UGT1A10, substrate 10 μM"}, "[8]": {"conditions": "cited from earlier work"}, "[9]": {"conditions": "cited from earlier work", "remark": "listed apart in the source"}, "[10]": {"conditions": "bioavailability studies in humans; cited from earlier work"}, "UGT1A9 [11]": {"molecular_target": "T3, UGT1A9", "conditions": "cited from earlier work"}}, "note": "Read-outs that look alike come from different tables or passages of the source."}
{"smiles": "O=c1cc(-c2ccc(O)cc2)oc2cc(O)cc(O)c12", "note": "[5,7,4'THF, 5,7,4’-trihydroxyflavone]", "values": [{"measurement": "Degree of regiospecificity (major glucuronide in bracket)", "setting": "UGT1A1 [1]; 2.5 μM", "value": "Dominant (7-O)"}, {"measurement": "Degree of regiospecificity (major glucuronide in bracket)", "setting": "UGT1A1 [1]; 10 μM", "value": "Dominant (7-O)"}, {"measurement": "Degree of regiospecificity (major glucuronide in bracket)", "setting": "UGT1A3 [2]; 2.5 μM", "value": "Dominant (7-O)"}, {"measurement": "Degree of regiospecificity (major glucuronide in bracket)", "setting": "UGT1A3 [2]; 10 μM", "value": "Dominant (7-O)"}, {"measurement": "Degree of regiospecificity (major glucuronide in bracket)", "setting": "UGT1A9 [3]; 2.5 μM", "value": "Dominant (7-O)"}, {"measurement": "Degree of regiospecificity (major glucuronide in bracket)", "setting": "UGT1A9 [3]; 10 μM", "value": "Dominant (7-O)"}, {"measurement": "Glucuronidation and regiospecificity across the 8 UGT isoforms", "setting": "[4]", "value": "all isoforms showed dominant regiospecific glucuronidation of hydroxyl group at C-7 position only"}]}
{"smiles": "O=c1c(O)c(-c2ccc(O)cc2)oc2cc(O)ccc12", "note": "[7,4'DHFnol, 3,7,4’-trihydroxyflavone]", "values": [{"measurement": "Degree of regiospecificity (major glucuronide in bracket)", "setting": "UGT1A1 [5]; UGT1A1, substrate 2.5 μM", "value": "No (3-O, 7-O)"}, {"measurement": "Degree of regiospecificity (major glucuronide in bracket)", "setting": "UGT1A1 [5]; UGT1A1, substrate 10 μM", "value": "No (3-O, 7-O)"}, {"measurement": "Hydroxyl positions glucuronidated", "setting": "UGT1A1 [5]; UGT1A1, substrate 10 μM", "value": "glucuronidated all the three hydroxyl groups"}, {"measurement": "Degree of regiospecificity (major glucuronide in bracket)", "setting": "UGT1A1 [5]; UGT1A1, substrate 10 μM, listed as 7,4’DHFnol", "value": "no regiospecific preference for any position"}, {"measurement": "Degree of regiospecificity (major glucuronide in bracket)", "setting": "UGT1A3 [6]; UGT1A3, substrate 2.5 μM", "value": "Dominant (7-O)"}, {"measurement": "Degree of regiospecificity (major glucuronide in bracket)", "setting": "UGT1A3 [6]; UGT1A3, substrate 10 μM", "value": "Weak (7-O)"}, {"measurement": "Hydroxyl positions glucuronidated", "setting": "UGT1A3 [6]; UGT1A3, substrate 10 μM", "value": "glucuronidated hydroxyl groups at C-3 and C-7 positions only"}, {"measurement": "Degree of regiospecificity (major glucuronide in bracket)", "setting": "UGT1A3 [6]; UGT1A3, substrate 10 μM, listed as 7,4’DHFnol", "value": "weak regiospecific preference for 7-O over 3-O position"}, {"measurement": "Hydroxyl positions glucuronidated", "setting": "UGT1A6", "value": "no position was glucuronidated"}, {"measurement": "Degree of regiospecificity (major glucuronide in bracket)", "setting": "UGT1A9 [7]; UGT1A9, substrate 2.5 μM", "value": "Moderate (3-O)"}, {"measurement": "Degree of regiospecificity (major glucuronide in bracket)", "setting": "UGT1A9 [7]; UGT1A9, substrate 10 μM", "value": "Moderate (3-O)"}, {"measurement": "Hydroxyl positions glucuronidated", "setting": "UGT1A9 [7]; UGT1A9, substrate 10 μM", "value": "glucuronidated hydroxyl groups at C-3 and C-7 positions only"}, {"measurement": "Degree of regiospecificity (major glucuronide in bracket)", "setting": "UGT1A9 [7]; UGT1A9, substrate 10 μM, listed as 7,4’DHFnol", "value": "moderate"}, {"measurement": "Hydroxyl positions glucuronidated", "setting": "UGT2B7", "value": "glucuronidated all the three hydroxyl groups"}, {"measurement": "Hydroxyl positions glucuronidated", "setting": "UGT1A10", "value": "glucuronidated all the three hydroxyl groups"}]}
{"smiles": "O=c1c(-c2ccc(O)cc2)coc2cc(O)cc(O)c12", "note": "[genistein]", "values": [{"measurement": "Cmax of 7-O-glucuronide relative to 4’-O-glucuronide", "setting": "[8]; intravenous administration of genistein", "value": "four times higher"}, {"measurement": "Cmax of 7-O-G relative to 4’-O-glucuronide", "setting": "[8]; per-oral administration of genistein", "value": 1.85, "unit": "times"}]}
{"smiles": "O=C(O)[C@H]1O[C@@H](Oc2cc(O)c3c(=O)c(O)c(-c4ccc(O)c(O)c4)oc3c2)[C@H](O)[C@@H](O)[C@@H]1O", "note": "[quercetin,7-O-G]", "values": [{"measurement": "Antioxidative property", "setting": "[9]", "value": "stronger antioxidative property than quercetin,3-O-G"}]}
{"smiles": "O=c1c(O)c(-c2ccc(O)c(O)c2)oc2cc(O)cc(O)c12", "note": "[quercetin, 3,5,7,3’-4’-pentahydroxyflavone]", "values": [{"measurement": "Main glucuronide found", "setting": "[10]", "value": "3-O-glucuronide of quercetin was also the main glucuronide"}, {"measurement": "Catalytic efficiency order for regiospecific glucuronidation", "setting": "UGT1A9 [11]", "value": "3- > 7- > 3′- > 4′-O-glucuronide"}]}
